# Experimental data from the supplement of paper PMC10307832.
# Tests used:
# Test in all cases: relative viability (nuclei count vs DMSO), 5 days (fraction); higher = more cells survive
# ChaGo-K-1 = tested on: ChaGo-K-1
# In short: (§1)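 Lung cancer cell lines in 1536-well plates got either a single drug or a fixed anchor-drug dose together with five library-drug doses (not always all listed) in √10 steps, by pin tool, on the day after seeding. Nuclei were counted after 5 days, and relative viability is the treated-to-vehicle ratio of nuclei counts. Values are medians of duplicate plates.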
# EMC-BAC-2 = tested on: EMC-BAC-2
# In short: as §1
# EPLC-272H = tested on: EPLC-272H
# In short: as §1
# H3255 = tested on: H3255
# In short: as §1
# HCC-44 = tested on: HCC-44
# In short: as §1
# HCC-827 = tested on: HCC-827
# In short: as §1
# LCLC-103H = tested on: LCLC-103H
# In short: as §1
# LU99A = tested on: LU99A
# In short: as §1
# NCI-H1395 = tested on: NCI-H1395
# In short: as §1
# NCI-H1651 = tested on: NCI-H1651
# In short: as §1
# NCI-H1793 = tested on: NCI-H1793
# In short: as §1
# NCI-H1944 = tested on: NCI-H1944
# In short: as §1
# NCI-H2085 = tested on: NCI-H2085
# In short: as §1
# NCI-H2087 = tested on: NCI-H2087
# In short: as §1
# NCI-H2405 = tested on: NCI-H2405
# In short: as §1
# NCI-H650 = tested on: NCI-H650
# In short: as §1
# NCI-H838 = tested on: NCI-H838
# In short: as §1
smiles,measurement,setting,value
Cc1sc2c(c1C)C(c1ccc(Cl)cc1)=N[C@@H](CC(=O)OC(C)(C)C)c1nnc(C)n1-2 [JQ1] + NC(=O)Nc1cc(-c2cccc(F)c2)sc1C(=O)N[C@H]1CCCNC1 [AZD7762] (partner 0.2 µM),relative viability,ChaGo-K-1; first compound 0.04 µM,0.875
same,relative viability,ChaGo-K-1; first compound 0.1265 µM,0.89
same,relative viability,ChaGo-K-1; first compound 0.4 µM,0.899
same,relative viability,ChaGo-K-1; first compound 1.265 µM,0.821
same,relative viability,ChaGo-K-1; first compound 4 µM,0.536
same,relative viability,EMC-BAC-2; first compound 0.04 µM,1.08
same,relative viability,EMC-BAC-2; first compound 0.1265 µM,0.869
same,relative viability,EMC-BAC-2; first compound 0.4 µM,0.975
same,relative viability,EMC-BAC-2; first compound 1.265 µM,0.725
same,relative viability,EMC-BAC-2; first compound 4 µM,0.627
same,relative viability,EPLC-272H; first compound 0.04 µM,0.244
same,relative viability,EPLC-272H; first compound 0.1265 µM,0.122
same,relative viability,EPLC-272H; first compound 0.4 µM,0.355
same,relative viability,EPLC-272H; first compound 1.265 µM,0.246
same,relative viability,EPLC-272H; first compound 4 µM,0.214
same,relative viability,H3255; first compound 0.04 µM,0.851
same,relative viability,H3255; first compound 0.1265 µM,0.67
same,relative viability,H3255; first compound 0.4 µM,0.71
same,relative viability,H3255; first compound 1.265 µM,0.411
same,relative viability,H3255; first compound 4 µM,0.277
same,relative viability,HCC-44; first compound 0.04 µM,0.987
same,relative viability,HCC-44; first compound 0.1265 µM,1.14
same,relative viability,HCC-44; first compound 0.4 µM,1.06
same,relative viability,HCC-44; first compound 1.265 µM,1.09
same,relative viability,HCC-44; first compound 4 µM,0.76
same,relative viability,HCC-827; first compound 0.04 µM,0.292
same,relative viability,HCC-827; first compound 0.1265 µM,0.266
same,relative viability,HCC-827; first compound 1.265 µM,0.233
same,relative viability,HCC-827; first compound 4 µM,0.277
same,relative viability,LCLC-103H; first compound 0.04 µM,0.778
same,relative viability,LCLC-103H; first compound 0.1265 µM,0.713
same,relative viability,LCLC-103H; first compound 0.4 µM,0.701
same,relative viability,LCLC-103H; first compound 1.265 µM,0.492
same,relative viability,LCLC-103H; first compound 4 µM,0.438
same,relative viability,LU99A; first compound 0.04 µM,0.443
same,relative viability,LU99A; first compound 0.4 µM,0.271
same,relative viability,LU99A; first compound 1.265 µM,0.165
same,relative viability,LU99A; first compound 4 µM,0.172
same,relative viability,NCI-H1395; first compound 0.04 µM,0.384
same,relative viability,NCI-H1395; first compound 0.1265 µM,0.379
same,relative viability,NCI-H1395; first compound 0.4 µM,0.372
same,relative viability,NCI-H1395; first compound 1.265 µM,0.348
same,relative viability,NCI-H1395; first compound 4 µM,0.361
same,relative viability,NCI-H1651; first compound 0.04 µM,0.538
same,relative viability,NCI-H1651; first compound 0.1265 µM,0.45
same,relative viability,NCI-H1651; first compound 0.4 µM,0.427
same,relative viability,NCI-H1651; first compound 1.265 µM,0.421
same,relative viability,NCI-H1651; first compound 4 µM,0.419
same,relative viability,NCI-H1793; first compound 0.04 µM,0.482
same,relative viability,NCI-H1793; first compound 0.1265 µM,0.395
same,relative viability,NCI-H1793; first compound 0.4 µM,0.824
same,relative viability,NCI-H1793; first compound 1.265 µM,0.556
same,relative viability,NCI-H1793; first compound 4 µM,0.459
same,relative viability,NCI-H1944; first compound 0.04 µM,0.533
same,relative viability,NCI-H1944; first compound 0.1265 µM,0.412
same,relative viability,NCI-H1944; first compound 0.4 µM,0.434
same,relative viability,NCI-H1944; first compound 1.265 µM,0.365
same,relative viability,NCI-H1944; first compound 4 µM,0.313
same,relative viability,NCI-H2085; first compound 0.04 µM,0.935
same,relative viability,NCI-H2085; first compound 0.1265 µM,0.822
same,relative viability,NCI-H2085; first compound 0.4 µM,1.06
same,relative viability,NCI-H2085; first compound 1.265 µM,0.446
same,relative viability,NCI-H2085; first compound 4 µM,0.318
same,relative viability,NCI-H2087; first compound 0.04 µM,1.34
same,relative viability,NCI-H2087; first compound 0.1265 µM,1.29
same,relative viability,NCI-H2087; first compound 0.4 µM,1.29
same,relative viability,NCI-H2087; first compound 1.265 µM,0.604
same,relative viability,NCI-H2087; first compound 4 µM,0.383
same,relative viability,NCI-H2405; first compound 0.04 µM,0.712
same,relative viability,NCI-H2405; first compound 0.4 µM,0.646
same,relative viability,NCI-H2405; first compound 1.265 µM,0.586
same,relative viability,NCI-H2405; first compound 4 µM,0.365
same,relative viability,NCI-H650; first compound 0.04 µM,0.935
same,relative viability,NCI-H650; first compound 0.1265 µM,0.591
same,relative viability,NCI-H650; first compound 0.4 µM,1
same,relative viability,NCI-H650; first compound 1.265 µM,0.565
same,relative viability,NCI-H650; first compound 4 µM,0.302
same,relative viability,NCI-H838; first compound 0.04 µM,0.907
same,relative viability,NCI-H838; first compound 0.1265 µM,0.782
same,relative viability,NCI-H838; first compound 0.4 µM,0.817
same,relative viability,NCI-H838; first compound 1.265 µM,0.805
same,relative viability,NCI-H838; first compound 4 µM,0.628
COc1cc2nccc(Oc3ccc(NC(=O)Nc4cc(C)on4)c(Cl)c3)c2cc1OC [Tivozanib] + NC(=O)Nc1cc(-c2cccc(F)c2)sc1C(=O)N[C@H]1CCCNC1 [AZD7762] (partner 0.2 µM),relative viability,ChaGo-K-1; first compound 0.005 µM,0.847
same,relative viability,ChaGo-K-1; first compound 0.01581 µM,0.831
same,relative viability,ChaGo-K-1; first compound 0.05 µM,0.901
same,relative viability,ChaGo-K-1; first compound 0.1581 µM,0.909
same,relative viability,ChaGo-K-1; first compound 0.5 µM,0.845
same,relative viability,EMC-BAC-2; first compound 0.005 µM,1.06
same,relative viability,EMC-BAC-2; first compound 0.01581 µM,1.15
same,relative viability,EMC-BAC-2; first compound 0.05 µM,1.06
same,relative viability,EMC-BAC-2; first compound 0.1581 µM,1.06
same,relative viability,EMC-BAC-2; first compound 0.5 µM,1.04
same,relative viability,EPLC-272H; first compound 0.005 µM,0.147
same,relative viability,EPLC-272H; first compound 0.01581 µM,0.159
same,relative viability,EPLC-272H; first compound 0.05 µM,0.186
same,relative viability,EPLC-272H; first compound 0.1581 µM,0.203
same,relative viability,EPLC-272H; first compound 0.5 µM,0.184
same,relative viability,H3255; first compound 0.005 µM,0.672
same,relative viability,H3255; first compound 0.01581 µM,0.86
same,relative viability,H3255; first compound 0.05 µM,0.961
same,relative viability,H3255; first compound 0.1581 µM,0.735
same,relative viability,H3255; first compound 0.5 µM,0.861
same,relative viability,HCC-44; first compound 0.005 µM,0.996
same,relative viability,HCC-44; first compound 0.01581 µM,0.963
same,relative viability,HCC-44; first compound 0.05 µM,1.01
same,relative viability,HCC-44; first compound 0.1581 µM,1.09
same,relative viability,HCC-44; first compound 0.5 µM,1.01
same,relative viability,HCC-827; first compound 0.005 µM,0.202
same,relative viability,HCC-827; first compound 0.01581 µM,0.25
same,relative viability,HCC-827; first compound 0.05 µM,0.314
same,relative viability,HCC-827; first compound 0.1581 µM,0.185
same,relative viability,HCC-827; first compound 0.5 µM,0.194
same,relative viability,LCLC-103H; first compound 0.005 µM,0.758
same,relative viability,LCLC-103H; first compound 0.01581 µM,0.829
same,relative viability,LCLC-103H; first compound 0.05 µM,0.812
same,relative viability,LCLC-103H; first compound 0.1581 µM,0.689
same,relative viability,LCLC-103H; first compound 0.5 µM,0.802
same,relative viability,LU99A; first compound 0.005 µM,0.337
same,relative viability,LU99A; first compound 0.01581 µM,0.342
same,relative viability,LU99A; first compound 0.05 µM,0.34
same,relative viability,LU99A; first compound 0.1581 µM,0.27
same,relative viability,LU99A; first compound 0.5 µM,0.288
same,relative viability,NCI-H1395; first compound 0.005 µM,0.359
same,relative viability,NCI-H1395; first compound 0.01581 µM,0.389
same,relative viability,NCI-H1395; first compound 0.05 µM,0.402
same,relative viability,NCI-H1395; first compound 0.1581 µM,0.386
same,relative viability,NCI-H1395; first compound 0.5 µM,0.35
same,relative viability,NCI-H1651; first compound 0.005 µM,0.381
same,relative viability,NCI-H1651; first compound 0.01581 µM,0.429
same,relative viability,NCI-H1651; first compound 0.05 µM,0.551
same,relative viability,NCI-H1651; first compound 0.1581 µM,0.301
same,relative viability,NCI-H1651; first compound 0.5 µM,0.421
same,relative viability,NCI-H1793; first compound 0.005 µM,0.448
same,relative viability,NCI-H1793; first compound 0.01581 µM,0.391
same,relative viability,NCI-H1793; first compound 0.05 µM,0.419
same,relative viability,NCI-H1793; first compound 0.5 µM,0.328
same,relative viability,NCI-H1944; first compound 0.005 µM,0.392
same,relative viability,NCI-H1944; first compound 0.01581 µM,0.552
same,relative viability,NCI-H1944; first compound 0.05 µM,0.378
same,relative viability,NCI-H1944; first compound 0.1581 µM,0.452
same,relative viability,NCI-H1944; first compound 0.5 µM,0.487
same,relative viability,NCI-H2085; first compound 0.005 µM,0.881
same,relative viability,NCI-H2085; first compound 0.01581 µM,0.862
same,relative viability,NCI-H2085; first compound 0.05 µM,1.05
same,relative viability,NCI-H2085; first compound 0.1581 µM,0.912
same,relative viability,NCI-H2085; first compound 0.5 µM,0.887
same,relative viability,NCI-H2087; first compound 0.005 µM,1.3
same,relative viability,NCI-H2087; first compound 0.01581 µM,1.3
same,relative viability,NCI-H2087; first compound 0.05 µM,1.28
same,relative viability,NCI-H2087; first compound 0.1581 µM,1.55
same,relative viability,NCI-H2087; first compound 0.5 µM,1.22
same,relative viability,NCI-H2405; first compound 0.005 µM,0.759
same,relative viability,NCI-H2405; first compound 0.01581 µM,0.893
same,relative viability,NCI-H2405; first compound 0.05 µM,0.735
same,relative viability,NCI-H2405; first compound 0.1581 µM,0.905
same,relative viability,NCI-H2405; first compound 0.5 µM,0.518
same,relative viability,NCI-H650; first compound 0.005 µM,0.771
same,relative viability,NCI-H650; first compound 0.01581 µM,1.08
same,relative viability,NCI-H650; first compound 0.05 µM,0.976
same,relative viability,NCI-H650; first compound 0.1581 µM,0.958
same,relative viability,NCI-H650; first compound 0.5 µM,0.683
same,relative viability,NCI-H838; first compound 0.005 µM,0.918
same,relative viability,NCI-H838; first compound 0.01581 µM,0.895
same,relative viability,NCI-H838; first compound 0.05 µM,0.973
same,relative viability,NCI-H838; first compound 0.1581 µM,1.04
same,relative viability,NCI-H838; first compound 0.5 µM,0.95
